# Laboratory results from patent publication EP2711006A1, “Product Comprising a Nicotine-Containing Material and an Anti-Cancer Agent” (Rigas, Basil, priority 2012, dated 2014).
# Read-outs that look alike come from different tables or passages of the source.
# Columns and labels:
# lung cancer = conditions: curcumin as a single agent, pre-clinical models of lung cancer; cited from earlier work
# [1] = for Total drug levels (PS V plus its metabolites): plasma
# [2] = test system: GFP-A549 human lung cancer cells
# Protocol: Experimental animals were held in nose-only air-tight tubes for designated time intervals.
# Inhalation treatment was resumed 2 days post-surgery and continued for 6 weeks when mice were euthanized, and blood and lung tissues were collected. Luminosity of the GFP-A549 tumors was measured and the lungs were weighed.
# [3] = parameters: unit not given beside the values; conditions: mouse, in vivo, inhaled or intranasal
smiles,measurement,setting,value
COc1cc(/C=C/C(=O)CC(=O)/C=C/c2ccc(O)c(OC)c2)ccc1O [curcumin],efficacy,lung cancer,< 30%
"CCOP(=O)(OCC)OCCCCOC(=O)CC1=C(C)/C(=C/c2ccc([S+](C)[O-])cc2)c2ccc(F)cc21 (stereo not drawn) [PS V, phospho-sulindac]",level of intact PS V in the lungs,"[1]; inhalational, 6.5 mg/kg body weight",> 20 nmol/g
same,level of intact PS V in the lungs,"[1]; oral administration, 150 mg/kg body weight",< 2 nmol/g
same,Total drug levels (PS V plus its metabolites),"[1]; after inhalation treatment, 6.5 mg/kg",17 µM
same,Total drug levels (PS V plus its metabolites),"[1]; after oral administration, 150 mg/kg",348 µM
same,tumor size by luminosity,"[2]; at sacrifice, Mean±SEM, control = 19.85±4.33, p < 0.001",5.05±2.97
same,tumor size by lung weight,"[2]; at sacrifice, Mean±SEM, control = 385.7±85.2 mg, p < 0.001",204.4 ± 39.4 mg
same,death rate,"[2]; end of the study, aerosol of 50 mg/mL PS V for 8 min, control group 40 %, p < 0.03",less than 10%
"CC1=C(CC(=O)O)c2cc(F)ccc2/C1=C\c1ccc([S+](C)[O-])cc1 (stereo not drawn) [Sulindac, sulindac]",AUC,[3],30.1
